Target: T1, Alpha-mannosidase 2 (Drosophila melanogaster, UniProt Q24451)
T1 sequence (Q24451 whole entry): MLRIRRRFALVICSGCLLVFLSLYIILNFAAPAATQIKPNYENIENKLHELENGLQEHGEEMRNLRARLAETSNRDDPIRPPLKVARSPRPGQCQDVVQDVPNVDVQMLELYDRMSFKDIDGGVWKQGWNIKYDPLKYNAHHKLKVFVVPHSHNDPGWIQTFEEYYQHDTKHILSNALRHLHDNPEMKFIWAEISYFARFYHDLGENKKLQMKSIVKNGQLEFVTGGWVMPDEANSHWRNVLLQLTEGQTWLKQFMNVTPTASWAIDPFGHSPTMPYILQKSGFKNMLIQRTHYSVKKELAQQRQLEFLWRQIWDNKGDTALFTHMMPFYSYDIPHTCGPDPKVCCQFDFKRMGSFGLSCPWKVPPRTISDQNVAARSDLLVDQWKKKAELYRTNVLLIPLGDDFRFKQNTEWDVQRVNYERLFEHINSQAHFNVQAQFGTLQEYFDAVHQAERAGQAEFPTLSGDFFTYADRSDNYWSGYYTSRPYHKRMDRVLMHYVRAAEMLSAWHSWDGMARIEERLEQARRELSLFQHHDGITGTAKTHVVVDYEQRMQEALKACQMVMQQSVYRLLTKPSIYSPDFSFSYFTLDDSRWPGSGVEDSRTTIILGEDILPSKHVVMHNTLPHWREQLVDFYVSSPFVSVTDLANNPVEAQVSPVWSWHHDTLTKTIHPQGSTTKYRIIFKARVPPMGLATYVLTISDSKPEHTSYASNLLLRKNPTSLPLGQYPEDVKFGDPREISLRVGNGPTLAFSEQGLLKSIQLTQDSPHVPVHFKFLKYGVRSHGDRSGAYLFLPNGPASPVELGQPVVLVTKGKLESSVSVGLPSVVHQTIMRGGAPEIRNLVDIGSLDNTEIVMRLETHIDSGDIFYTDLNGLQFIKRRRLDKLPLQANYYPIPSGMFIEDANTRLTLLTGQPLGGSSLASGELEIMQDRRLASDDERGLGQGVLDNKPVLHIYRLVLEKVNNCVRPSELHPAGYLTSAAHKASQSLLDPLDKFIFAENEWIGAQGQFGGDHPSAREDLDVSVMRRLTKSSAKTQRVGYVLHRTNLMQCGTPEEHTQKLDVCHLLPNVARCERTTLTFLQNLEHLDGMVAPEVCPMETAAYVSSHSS
Assay: Inhibition Assay
Experimental: The rate of hydrolysis catalyzed by drosophila golgi alpha-mannosidase II (dGMII)and in the presence of different concentration of inhibitor was measured fluorometrically and Ki values were determined from Dixon plots.

Ki [µM]	IC50 [µM]	SMILES
0.15		C[S+]([O-])[C@@H]1[C@@H](N)[C@@H](O)[C@@H](O)[C@H]1O (some centres not stated) [Mannostatin B, 2]
	100	N[C@H]1[C@@H](O)[C@@H](O)[C@@H](O)[C@H]1O [Mannostatin analogue, 4b]

From BindingDB's records for doi:10.1002/cbic.200800538 (University of Toronto, 2009)
